US10570151B2, “Biologically active molecules, conjugates thereof, and therapeutic uses” (priority 2013, dated 2020)
Read-outs that look alike come from different tables or passages of the source.

What was measured:
Type in all cases: cell-based
MMT cells = test: Anti-proliferation activity of unconjugated compounds in MMT; details: unconjugated (Table 2, FIG. 8)
Method: (§1) Cells were seeded in PDL-coated 96 well plates at 375 (MMT/hEGFRvIII), 1500 (U251/hEGFRvIII), 2000 (HEK293/hEGFRvIII), or 3000 (C4-2, PC3/hSTEAP1, T47D, and U87-MG) cells per well in complete growth media and grown overnight. For cell viability curves, serially diluted conjugates or free representative payloads were added to the cells at final concentrations ranging from 500 nM to 1 pM and incubated for 3 days. To measure viability in MMT/hEGFRvIII, U251/hEGFRvIII, HEK293/hEGFRvIII, C4-2, PC3/hSTEAP1, and U87-MG, cells were incubated with CCK8 (Dojindo) for the final 1-3 hours and the absorbance at 450 nm (OD450) was determined on a Flexstation3 (Molecular Devices). To measure viability in T47D, cells were incubated on ice for 30 min in 4% formaldehye+3 ug/ml Hoechst. Images of Hoechst stained nuclei were acquired on the ImageXpress Micro XL (Molecular Devices) and nuclear counts were determined with the Columbus analysis software (PerkinElmer). Background OD450 levels (CCK8) or nuclear counts from digitonin ([…]) treated cells were subtracted from all wells and viability is expressed as a percentage of the untreated controls. IC50 values were determined from a four-parameter logistic equation over a 10-point response curve (GraphPad Prism). All curves and IC50 values are corrected for payload equivalents.
(§2) In yet another set of experiments, compounds 6, 9, 33, and 35 were assayed in HEK293, U251, C4-2, PC3, and MMT for anti-proliferation activity (FIG. 8). The trend in potency follows 9>33>35>6 and is consistent for the 5 cell lines assayed.

U251 cells = test: Anti-proliferation activity of unconjugated compounds in U251; details: Homo sapiens, U-251; U251, unconjugated (Table 2, FIG. 8)
Method: as §1, §2

PC3 cells = test: Anti-proliferation activity of unconjugated compounds in PC3; details: Homo sapiens, PC-3; PC3, unconjugated (Table 2, FIG. 8)
Method: as §1, §2

[1] = test system: C4-2 cells (prostate cancer line); test: In vitro cytotoxicity (cell viability, CCK8) in C4-2 cells; details: C4-2, unconjugated (Table 2, FIG. 8)
Method: as §1

HEK293 cells = test: Anti-proliferation activity of unconjugated compounds in HEK293; details: Homo sapiens
Method: as §1
(§3) In a separate set of experiments, compound 6, along with amino analogs 27, 29, and 31 were assayed in HEK293 and U87MG for anti-proliferation activity (FIG. 7). […] (For these experiments, background correction with digitonin was not performed).
as §2

U87MG cells = test: Anti-proliferation activity of unconjugated compounds in U87MG; details: Homo sapiens, U-87 MG, background correction with digitonin not performed (FIG. 7)
Method: as §1, §3

[2] = HEK293, unconjugated (Table 2, FIG. 8), read-out: IC50 (nM) HEK293
[3] = HEK293, unconjugated, background correction with digitonin not performed (FIG. 7), read-out: IC50

| Compound | IC50 (MMT cells) | IC50 (U251 cells) | IC50 (PC3 cells) | IC50 [1] | IC50 (HEK293 cells; [2]) | IC50 (U87MG cells) | IC50 (HEK293 cells; [3]) |
| --- | --- | --- | --- | --- | --- | --- | --- |
| COc1cc2cc(c1Cl)N(C)C(=O)C[C@H](OC(=O)[C@H](C)N(C)C(=O)c1ccc3c(c1)CCNC3)[C@]1(C)O[C@H]1[C@H](C)[C@@H]1C[C@@](O)(NC(=O)O1)[C@H](OC)/C=C/C=C(\C)C2 [Compound 33, Maytansin-3-N-methyl-L-N-alanine-N-carboxy-6-(1,2,3,4-tetrahydroisoquinoline)] | 20 nM | 15 nM | 30 nM | 20 nM | 20 nM |  |  |
| CNCCC(=O)N(C)[C@@H](C)C(=O)O[C@H]1CC(=O)N(C)c2cc(cc(OC)c2Cl)C/C(C)=C/C=C/[C@@H](OC)[C@@]2(O)C[C@H](OC(=O)N2)[C@@H](C)[C@@H]2O[C@@]12C [Compound 6] | 250 nM | 150 nM | 250 nM | 200 nM | 200 nM | > 30 nM | > 30 nM |
| COc1cc2cc(c1Cl)N(C)C(=O)C[C@H](OC(=O)[C@H](C)N(C)C(=O)CCCN)[C@]1(C)O[C@H]1[C@H](C)[C@@H]1C[C@@](O)(NC(=O)O1)[C@H](OC)/C=C/C=C(\C)C2 [Compound 29, Maytansin-3-N-methyl-L-(S)-alanine-γ-aminobutyramide] |  |  |  |  |  | > 30 nM | > 30 nM |
| CNCCCC(=O)N(C)[C@@H](C)C(=O)O[C@H]1CC(=O)N(C)c2cc(cc(OC)c2Cl)C/C(C)=C/C=C/[C@@H](OC)[C@@]2(O)C[C@H](OC(=O)N2)[C@@H](C)[C@@H]2O[C@@]12C [Compound 31, Maytansin-3-N-methyl-L-(8)-alanine-N-Me-γ-aminobutyramide] |  |  |  |  |  | > 30 nM | > 30 nM |
| COc1cc2cc(c1Cl)N(C)C(=O)C[C@H](OC(=O)[C@H](C)N(C)C(=O)CCSSC)[C@]1(C)O[C@H]1[C@H](C)[C@@H]1C[C@@](O)(NC(=O)O1)[C@H](OC)/C=C/C=C(\C)C2 [Compound 9, Maytansin-3-N-methyl-L-(S)-alanine-propanamidyl-3-methyldisulfide] | 0.3 nM | 0.4 nM | 0.4 nM | 1.5 nM | 0.2 nM |  |  |
| COc1cc2cc(c1Cl)N(C)C(=O)C[C@H](OC(=O)[C@H](C)N(C)C(=O)C1CCNCC1)[C@]1(C)O[C@H]1[C@H](C)[C@@H]1C[C@@](O)(NC(=O)O1)[C@H](OC)/C=C/C=C(\C)C2 [Compound 35, Maytansin-3-N-methyl-L-(S)-alanine-N-carboxy-4-piperidine] | 60 nM | 25 nM | 65 nM | 55 nM | 50 nM |  |  |
| COc1cc2cc(c1Cl)N(C)C(=O)C[C@H](OC(=O)[C@H](C)N(C)C(=O)CCN)[C@]1(C)O[C@H]1[C@H](C)[C@@H]1C[C@@](O)(NC(=O)O1)[C@H](OC)/C=C/C=C(\C)C2 [Compound 27, Maytansin-3-N-methyl-L-(S)-alanine-β-alanine] |  |  |  |  |  | > 30 nM | > 30 nM |
